Paper PMC7367873, “Dissecting the sequence determinants for dephosphorylation by the catalytic subunits of phosphatases PP1 and PP2A” (Nature Communications, 2020)
“Also recorded” adds a separate entry of the source.

System: GAB2/GFP-14-3-3β interaction
Assay: GAB2/14-3-3 binding assay (GFP-14-3-3β pull-down, Western blot)
Set-up: species or system human
Protocol: pEGFP(C1)-14-3-3β or pCMV-GAB2-3FLAG was transfected into HeLa Kyoto cells as described in the respective section for 24 h. Cells were incubated with or w/o 20 nM Calyculin A (# 9902 S, Cell Signaling Technology) in complete growth media for 12 min. Cells were washed twice on ice with cold PBS and after addition of 500 µL lysis buffer (100 mM NaCl, 10 mM Tris, 0.1% IGEPAL, 1 mM EDTA, 1 mM EGTA, 20 nM Calyculin A, 1x cOmplete Mini protease inhibitor cocktail (Sigma), 2 mM DTT, 2 mM MnCl2) cells were scraped from plates, lysed by 10 pushes through an injection needle and the insoluble fraction was pelleted by centrifugation (10 min, 10^4 rcf, 4 °C). Supernatants were then subjected to incubation with 1 µM recombinant PP1c (if not indicated otherwise) or buffer for 1 h at 30 °C. […] Next, we subjected samples to immunoprecipitation/pull-down using 25 µL of α-FLAG M2 magnetic bead slurry (Sigma-Aldrich) or an equal volume of bead-coupled α-GFP nanobodies (EMBL PEPcore Core Facility) for 2 h at 4 °C. Beads were then washed three times with lysis buffer and samples were eluted in 1x SDS sample buffer by heating to 95 °C for 10 min and further analyzed by SDS PAGE for 14-3-3/GAB2 association and phosphorylation status of GAB2-pS210.
For SDS-PAGE, samples were loaded on NuPAGE™ 4-12% Bis-Tris protein gels (Invitrogen) and gel electrophoresis was performed at 180 V constant in 1x MOPS buffer. Samples were transferred onto CN blotting membranes (0.45 µm, neoLab) by wet blotting. Membranes were stained using Ponceau, followed by blocking with Tris-buffered saline with 0.1% Tween (TBS-T) containing 5% (w/v) non-fat milk for 45 min at room temperature. After three washes (5 min), membranes were then incubated with the following antibodies in TBS-T with 5% BSA overnight at 4 °C: α-GFP (1:2000, Abcam, ab6556), α-GAB2 (1:1000, CST, #3239), α-GAB2-pS210 (1:250, Symansis, customized purification), α-FLAG (1:1000, M2, Sigma-Aldrich, F3165), α-pan14-3-3 (1:500, SCBT, sc-629), α-PP1 (1:1000, SCBT, sc-7482), α-PP2A (1:1000, SCBT, sc-130237) or α-6His (1:2000, Abcam, ab9108). Afterwards blots were washed three times in TBS-T and incubated with goat anti-mouse IgG-peroxidase conjugate (1:2500, Sigma, A0168), donkey anti-rabbit IgG-horseradish peroxidase (HRP) conjugate (1:2500, GE Healthcare, GENA934), or rabbit anti-sheep IgG (H + L) HRP conjugate (1:2500, Thermo Fisher Scientific, 61-8620) for 2 h at room temperature. […] All blots were quantified using raw images and ImageLab software (v6.0.1, BioRad): Files were imported and analyzed without further modifications. […] The quantification was exported from the analysis table and measurements of background adjusted band volumes where used for further normalization steps and graphical depiction. […]

PP1c: recombinant catalytic subunit of PP1
interaction of GAB2 with overexpressed GFP-14-3-3β (Calyculin A 20 nM in cells, recombinant PP1c in lysate 1 h at 30 °C, PP1c-concentration-dependent, three independent experiments): decreased upon addition of recombinant PP1c in a PP1c–concentration-dependent manner; also recorded: less associated with endogenous GAB2
interaction of GAB2 with GFP-14-3-3β, PP1c pre-inhibited (recombinant PP1c mixed with equimolar Calyculin A for 5–10 min before addition to lysate): but not if recombinant PP1c was inhibited prior to treatment
